target: human PDE10A2 (Homo sapiens (Human), UniProt Q9Y233); test: PDE10 fluorescence polarization (IMAP FP) inhibition assay; assay type: biochemical; conditions: human PDE10A2 lysate, FAM-labeled cAMP 50 nM, room temperature; read-out: PDE10A Ki
Summary of the method: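 Cytoplasmic lysate of AD293 cells transiently expressing human PDE10A2, diluted for ~20% conversion of 50 nM FAM-cAMP, in 10 mM Tris pH 7.2, 10 mM MgCl2, 1 mM DTT, 0.01% Tween-20. Reaction 30 min at room temperature, read by IMAP fluorescence polarization; 10-point 3-fold titrations, 1% DMSO as 0%, reference PDE10 inhibitor at 5,000× Ki as 100%.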

Chain of human PDE10A2 (Q9Y233 267-1055): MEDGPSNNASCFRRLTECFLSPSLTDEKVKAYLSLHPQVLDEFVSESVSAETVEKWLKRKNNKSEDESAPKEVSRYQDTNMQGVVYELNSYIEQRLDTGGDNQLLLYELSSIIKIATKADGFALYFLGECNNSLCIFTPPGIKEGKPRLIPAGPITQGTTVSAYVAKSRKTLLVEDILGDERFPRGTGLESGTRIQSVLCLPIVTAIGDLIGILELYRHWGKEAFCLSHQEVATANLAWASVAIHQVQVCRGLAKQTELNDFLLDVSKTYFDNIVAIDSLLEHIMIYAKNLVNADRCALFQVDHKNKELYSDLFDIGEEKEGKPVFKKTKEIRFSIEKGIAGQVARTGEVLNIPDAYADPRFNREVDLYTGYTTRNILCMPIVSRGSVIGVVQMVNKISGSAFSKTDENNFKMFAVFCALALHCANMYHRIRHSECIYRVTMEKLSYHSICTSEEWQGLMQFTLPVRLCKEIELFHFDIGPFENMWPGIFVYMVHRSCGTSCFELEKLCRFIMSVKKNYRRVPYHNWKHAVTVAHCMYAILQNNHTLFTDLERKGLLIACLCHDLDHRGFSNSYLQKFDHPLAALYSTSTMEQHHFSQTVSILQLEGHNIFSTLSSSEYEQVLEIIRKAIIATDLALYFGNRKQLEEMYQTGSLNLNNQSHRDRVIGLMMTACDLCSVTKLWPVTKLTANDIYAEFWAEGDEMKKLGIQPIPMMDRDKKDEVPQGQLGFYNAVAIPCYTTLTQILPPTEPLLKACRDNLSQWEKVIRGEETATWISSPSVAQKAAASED

Structure (SMILES)	Ki [nM]
COc1ccc([C@H]2C[C@@H]2COc2cc(NCc3cn(C)nc3C)c(=O)n(C)n2)nc1 [Example 37, 4-((1,3-dimethyl-1H-pyrazol-4-yl)methyl-amino)-6-(((1S,2S)-2-(5-methoxypyridin-2-yl)cyclopropyl)methoxy)-2-methylpyridazin-3(2H)-one]	0.009
Cc1ncc(CNc2cc(OC[C@H]3C[C@@H]3c3ccc(OC(F)F)cn3)nn(C)c2=O)s1 [Example 29, 6-(((1S,2S)-2-(5-(difluoromethoxy)pyridin-2-yl)cyclopropyl)-methoxy)-2-methyl-4-((2-methylthiazol-5-yl)methyl-amino)pyridazin-3(2H)one]	0.109
COc1ccc([C@H]2C[C@@H]2COc2cc(NCc3cc(C)ccn3)c(=O)n(C)n2)nc1 [Example 105, 6-(((1S,2S)-2-(5-methoxy-pyridin-2-yl)cyclopropyl-)methoxy)-2-methyl-4-(((-4-methylpyridin-2-yl)-methyl)amino)pyridazin-3(2H)-one]	0.276
Cc1ncc(CNc2cc(OC[C@H]3C[C@@H]3c3ccc(F)cn3)nn(C)c2=O)s1 [Example 22, 6-(((1S,2S)-2-(5-fluoropyridin-2-yl)cyclopropyl)methoxy)-2-methyl-4-((2-methylthiazol-5-yl)methylamino)pyridazin-3(2H)-one]	0.175
COc1ccc(CNc2cc(OC[C@H]3C[C@@H]3c3ccn(C)n3)nn(C)c2=O)cc1 [Example 17, 4-(4-methoxybenzylamino)-2-methyl-6-(((1S,2S)-2-(1-methyl-1H-pyrazol-3-yl)cyclopropyl)methoxy)-pyridazin-3(2H)-one]	0.502
Cc1ccc([C@H]2C[C@@H]2COc2cc(NCc3cc(C)nn3C)c(=O)n(C)n2)nc1 [Example 14, 4-((1,3-dimethyl-1H-pyrazol-5-yl)methylamino-)-2-methyl-6-(((1S,2S)-2-(5-methylpyridin-2-yl)cyclopropyl)methoxy)-pyridazin-3(2H)-one]	0.003
Cc1ccc([C@H]2C[C@@H]2COc2cc(NCc3nc(C)cs3)c(=O)n(C)n2)nc1 [Example 12, 2-methyl-6-(((1S,2S)-2-(5-methylpyridin-2-yl)cyclo-propyl)methoxy)-4-((4-methylthiazol-2-yl)methyl-amino)pyridazin-3(2H)one]	9.89
COc1ccc(CNc2cc(OC[C@H]3C[C@@H]3c3ccc(OC)cn3)nn(C)c2=O)cc1 [Example 133, 4-(4-methoxybenzyl-amino)-6-(((1S,2S)-2-(5-methoxypyridin-2-yl)-cyclopropyl)methoxy)-2-methylpyridazin-3(2H)one]	0.021
COc1ccc([C@H]2C[C@@H]2COc2cc(NCc3ccc(C)cn3)c(=O)n(C)n2)nc1 [Example 72, 6-(((1S,2S)-2-(5-methoxy-pyridin-2-yl)cyclopropyl-)-methoxy)-2-methyl-4-(((5-methylpyridin-2-yl)-methyl)amino)pyridazin-3(2H)-one]	0.019
Cc1ccc([C@H]2C[C@@H]2COc2cc(NCc3ccc(C)nc3C)c(=O)n(C)n2)nc1 [Example 52, 4-(((2,6-dimethylpyridin-3-yl)methyl)amino)-2-methyl-6-(((1S,2S)-2-(5-methylpyridin-2-yl)cyclopropyl)methoxy)-pyridazin-3(2H)-one]	0.007
COc1ccc([C@H]2C[C@@H]2COc2cc(NCc3ccccn3)c(=O)n(C)n2)nc1 [Example 134, 6-(((1S,2S)-2-(5-methoxy-pyridin-2-yl)-cyclopropyl-)methoxy)-2-methyl-4-(pyridin-2-yl-methyl-amino)pyridazin-3(2H)one]	0.706
Cc1cc(CNc2cc(OC[C@H]3C[C@@H]3c3ccn(C)n3)nn(C)c2=O)n(C)n1 [Example 21, 4-((1,3-dimethyl-1H-pyrazol-5-yl)methylamino)-2-methyl-6-(((1S,2S)-2-(1-methyl-1H-pyrazol-3-yl)cyclopropyl)methoxy)-pyridazin-3(2H)-one]	0.044
Cc1ccc([C@H]2C[C@@H]2COc2cc(NC(=O)c3cc(C)nn3C)c(=O)n(C)n2)nc1 [Example 102, 1,3-dimethyl-N-(2-methyl-6-(((1S,2S)-2-(5-methyl-pyridin-2-yl)cyclopropyl-)methoxy)-3-oxo-2,3-dihydropyridazin-4-yl)-1H-pyrazole-5-carboxamide]	51.2
COc1ccc(CNc2cc(OC[C@H]3C[C@@H]3c3ccc(F)cn3)nn(C)c2=O)cc1 [Example 15, 6-(((1S,2S)-2-(5-fluoro-pyridin-2-yl)-cyclopropyl-)-methoxy)-4-(4-methoxy-benzylamino)-2-methyl-pyridazin-3(2H)-one]	1.29
Cc1cc(CNc2cc(OC[C@H]3C[C@@H]3c3ccc4c(n3)CCC4)nn(C)c2=O)n(C)n1 [Example 121, 6-(((1S,2S)-2-(6,7-dihydro-5H-cyclopenta-[b]pyridin-2-yl)cyclop-ropyl)methoxy)-4-((1,3-dimethyl-1H-pyrazol-5-yl)methylamino)-2-methylpyridazin-3(2H)one]	0.001
Cc1cccc([C@H]2C[C@@H]2COc2cc(NCc3ccccn3)c(=O)n(C)n2)n1 [Example 119, 2-methyl-6-(((1S,2S)-2-(6-methylpyridin-2-yl)cyclo-propyl)methoxy)-4-(pyridin-2-ylmethylamino-)pyridazin-3(2H)-one]	3.4
Cc1ccc([C@H]2C[C@@H]2COc2cc(NCc3ccc(C)nc3)c(=O)n(C)n2)nc1 [Example 11, 2-methyl-6-(((1S,2S)-2-(5-methylpyridin-2-yl)cyclopropyl)methoxy)-4-((6-methylpyridin-3-yl)methylamino)pyridazin-3(2H)-one]	0.121
COc1ccc([C@H]2C[C@@H]2COc2cc(NCc3nnc(C)s3)c(=O)n(C)n2)nc1 [Example 4, 6-(((1S,2S)-2-(5-methoxy-pyridin-2-yl)cyclopropyl-)-methoxy)-2-methyl-4-((5-methyl-1,3,4-thiadiazol-2-yl)methylamino)pyridazin-3(2H)-one]	0.015

Next, values leading:

Ki [nM]	Structure (SMILES)
0.034	Cc1ccc(CNc2cc(OC[C@H]3C[C@@H]3c3ccc(F)cn3)nn(C)c2=O)c(C)n1 [Example 53, 4-(((2,6-dimethylpyridin-3-yl)methyl)amino)-6-(((1S,2S)-2-(5-fluoro-pyridin-2-yl)cyclopropyl-)-methoxy)-2-methyl-pyridazin-3(2H)-one]
0.014	COc1ccc([C@H]2C[C@@H]2COc2cc(NCc3cnn(C)c3)c(=O)n(C)n2)nc1 [Example 131, 6-(((1S,2S)-2-(5-methoxy-pyridin-2-yl)cyclopropyl-)methoxy)-2-methyl-4-((1-methyl-1H-pyrazol-4-yl)methylamino)pyridazin-3(2H)-one]
75	COc1ccc([C@H]2C[C@@H]2COc2cc(NC(=O)c3cnn(C)c3Cl)c(=O)n(C)n2)nc1 [Example 95, 5-chloro-N-(6-(((1S,2S)-2-(5-methoxypyridin-2-yl)-cyclopropyl)methoxy)-2-methyl-3-oxo-2,3-dihydro-pyridazin-4-yl)-1-methyl-1Hpyrazole-4carboxamide]
4.1	Cc1noc(C)c1CNc1cc(OC[C@H]2C[C@@H]2c2ccn(C)n2)nn(C)c1=O [Example 61, 4-(((3,5-dimethylisoxazol-4-yl)methyl)amino)-2-methyl-6-(((1S,2S)-2-(1-methyl-1H-pyrazol-3-yl)cyclopropyl)methoxy)-pyridazin-3(2H)-one]
48.5	COc1ccc([C@H]2C[C@@H]2COc2cc(NCc3nc(C)ccc3C)c(=O)n(C)n2)nc1 [Example 71, 4-(((3,6-dimethylpyridin-2-yl)methyl)amino)-6-(((1S,2S)-2-(5-methoxy-pyridin-2-yl)cyclopropyl-)-methoxy)-2-methylpyridazin-3(2H)one]
0.025	COc1ccc([C@H]2C[C@@H]2COc2cc(NCc3ccc(C)nc3)c(=O)n(C)n2)nc1 [Example 64, 6-(((1S,2S)-2-(5-methoxy-pyridin-2-yl)cyclopropyl-)-methoxy)-2-methyl-4-(((6-methylpyridin-3-yl)methyl)amino)pyridazin-3(2H)-one]
0.004	COc1ccc([C@H]2C[C@@H]2COc2cc(NCc3ncc(C)s3)c(=O)n(C)n2)nc1 [Example 130, 6-(((1S,2S)-2-(5-methoxy-pyridin-2-yl)cyclopropyl-)methoxy)-2-methyl-4-((5-methyl-thiazol-2-yl)-methylamino-)pyridazin-3(2H)-one]
0.048	COc1ccc([C@H]2C[C@@H]2COc2cc(NCc3c[nH]nn3)c(=O)n(C)n2)nc1 [Example 146, 4-((1H-1,2,3-triazol-4-yl)methylamino)-6-(((1S,2S)-2-(5-methoxypyridin-2-yl)cyclopropyl)methoxy)-2-methylpyridazin-3(2H)-one]
0.072	Cc1ccc([C@H]2C[C@@H]2COc2cc(NCc3cnn(C)c3)c(=O)n(C)n2)nc1 [Example 10, 2-methyl-4-((1-methyl-1H-pyrazol-4-yl)methylamino)-6-(((1S,2S)-2-(5-methylpyridin-2-yl)cyclopropyl)methoxy)-pyridazin-3(2H)-one]

Reference: patent US9353104B2, “Substituted pyridizinone derivatives as PDE10 inhibitors” (priority 2013, dated 2016)
